Assay results from patent publication US12384775B2, “Pyrimid-2-yl-pyrazole compounds as IRAK inhibitors” (Rigel Pharmaceuticals, Inc., priority 2022, dated 2025).

What was measured:
[1] = test system: TLR2-induced TNF-α production in human primary dendritic cells (DC); assay: TLR2-induced TNF-α in human primary dendritic cells; assay type: cell-based
[2] = test system: IL-10-induced production of the cytokine IL-6 in primary human endothelial cells; assay: IL-6 production in primary human endothelial cells; assay type: cell-based
[3] = target: T1, IRAK1 (Homo sapiens, UniProt P51617); assay: IRAK1 Adapta assay; assay type: biochemical; conditions: for IC50: n = 1, read-out: IRAK4 IC50 Adapta (n = 1)
Method: • Bar-coded Corning, low volume, white 384-well plate (Corning Cat. #4512) • Test Compounds: The Test Compounds are screened in 1% DMSO (final) in the well. For 10 point titrations, 3-fold serial dilutions 10 μM. • Substrate/Kinase Mixture: The 2×IRAK1/Histone H3 (1-20) peptide mixture is prepared in 50 mM HEPES pH 7.5, 0.01% BRIJ-35, 10 mM MgCl2, 1 mM EGTA. • ATP Solution: All ATP Solutions are diluted to a 4× working concentration in water. • ATP Km apparent is previously determined using a radiometric assay except when no substrate is available in which case an Adapta assay is conducted. • Detection Mix: The Detection Mix is prepared in TR-FRET Dilution Buffer. The Detection mix consists of EDTA (30 mM), Eu-anti-ADP antibody (6 nM) and ADP tracer. The detection mix contains the EC60 concentration of tracer for 5-150 μM ATP. IRAK1 Method • 1. 100 nL—100× Test Compound in 100% DMSO • 2. 2.4 μL—30 mM HEPES • 3. 2.5 μL—4×ATP Solution • 4. 5 μL—2× Substrate/Kinase Mixture
The final 10 μL Kinase Reaction consists of 3.17-42 ng IRAK1 and 100 μM Histone H3 (1-20) peptide in 32.5 mM HEPES pH 7.5, 0.005% BRIJ-35, 5 mM MgCl2, 0.5 mM EGTA. • 5. 30-second plate shake • 6. 1-minute centrifuge at 1000× g • 7. 60-minute Kinase Reaction incubation at room temperature • 8. 5 μL—Detection Mix • 9. 30-second plate shake • 10. 1-minute centrifuge at 1000× g • 11. 60-minute Detection Mix equilibration at room temperature • 12. Read on fluorescence plate reader and analyze the data

[4] = test system: TLR4-dependent cytokine production in mouse macrophages; assay: TLR4-dependent cytokine production in mouse macrophages; assay type: cell-based
[5] = target: T1, IRAK1; assay: IRAK1 ADP-Glo kinase assay; assay type: biochemical; conditions: read-out: IRAK1 ADP-Glo Kinase, 8 pt EC50
[6] = test system: Gardiquimod-Induced IL-6 in Human Blood; assay: Gardiquimod-induced IL-6 in human whole blood; assay type: cell-based; conditions: Gardiquimod 4 μg/ml overnight, read-out: Human Whole Blood Assays (IC5050), IL-6 Gard
Method: To assess the effect of whole blood on the potency of compound I-1 and Comparison-1, the compounds were evaluated for their inhibitory potential on TLR dependent cytokine release in human blood. Freshly drawn peripheral blood from healthy volunteers was incubated with test compound and stimulated overnight with LPS or Gardiquimod. The serum was isolated after centrifugation and TNF-α and IL-6 were measured by ELISA.
Whole blood of healthy volunteers was collected in Vacutainer containing Sodium Heparin and 40 μL of blood was plated to each well. Compound was serially diluted in DMSO from 2 mM in 3-fold dilutions, and then diluted 1:100 in media with 10% FBS. 50 μL of 2× compound per well in duplicate was added to each well and incubated for one hour. 10 μL Gardiquimod was added to each well at a final concentration of 4 μg/ml and cells were incubated overnight.
100 μL of PBS was added to each well and centrifuged for 10 minutes at 1000 RPM 25 μL of supernatant were taken, and IL-6 was measured by Luminex Flexmap 3d.

[7] = Plasma protein binding, equilibrium dialysis (RED), dog; assay type: in vitro ADME; conditions: drug 5 μM; for fraction unbound at 5 μM: read-out: % bound (converted)
Method: Brain and plasma drug binding were performed by equilibrium dialysis using the Rapid Equilibrium Dialysis (RED) device. Briefly, 300 μL of plasma or brain homogenate (1 brain/3 buffer) containing drug (5 μM) was equilibrated (4-18 h) against 500 μL of buffered saline. After incubation, the concentration of drug in plasma/brain homogenate and buffer was determined by LC-MS/MS.
Recovery is calculated by determining the total amount of drug in 50 μL of plasma and 50 μL buffer after the incubation and comparing that value to the amount of drug in 50 μL of a plasma sample that was not incubated. For the protein binding assay, drug was added to the plasma and this plasma was added to one side of the dialysis device while buffer was added to the other. After filing the plasma chamber of the equilibrium device, a 50 μL aliquot of plasma was mixed with 50 μL of buffer and then quenched with stop reagent. Drug recovery=(Drug buffer+Drug plasma)/(drug in initial plasma)

T1 sequence (P51617 whole entry): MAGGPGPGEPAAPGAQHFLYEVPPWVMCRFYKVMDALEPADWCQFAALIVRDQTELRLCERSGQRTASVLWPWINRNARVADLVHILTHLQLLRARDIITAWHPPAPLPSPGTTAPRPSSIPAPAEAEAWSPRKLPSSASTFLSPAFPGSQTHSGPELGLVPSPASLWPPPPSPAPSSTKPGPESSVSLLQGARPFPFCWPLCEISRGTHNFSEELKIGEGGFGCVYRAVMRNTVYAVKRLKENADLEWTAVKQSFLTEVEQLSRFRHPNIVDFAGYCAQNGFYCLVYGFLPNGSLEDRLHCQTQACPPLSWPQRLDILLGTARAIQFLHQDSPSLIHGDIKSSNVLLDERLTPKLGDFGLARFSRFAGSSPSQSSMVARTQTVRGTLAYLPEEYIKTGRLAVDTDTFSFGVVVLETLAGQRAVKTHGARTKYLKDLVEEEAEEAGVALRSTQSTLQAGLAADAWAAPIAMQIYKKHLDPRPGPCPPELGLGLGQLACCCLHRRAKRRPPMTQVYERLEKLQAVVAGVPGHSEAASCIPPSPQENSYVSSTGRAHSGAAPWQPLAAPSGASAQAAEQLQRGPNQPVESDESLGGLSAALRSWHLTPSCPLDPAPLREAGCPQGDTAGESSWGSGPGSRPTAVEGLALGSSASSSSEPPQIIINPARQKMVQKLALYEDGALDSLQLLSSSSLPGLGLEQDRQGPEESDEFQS

Structure (SMILES)	TLR2-induced TNF-α production in human primary dendritic cells (DC) [1]	IL-10-induced production of the cytokine IL-6 in primary human endothelial cells [2]	EC50 [3]	IC50 [3]	TLR4-dependent cytokine production in mouse macrophages [4]	EC50 [5]	IC50 [6]	recovery at 5 μM [7]	fraction unbound at 5 μM [7]
CCO[C@H]1CC[C@H](n2cc(NC(=O)c3csc(-c4cn[nH]c4)n3)c(-c3ncccn3)n2)CC1 [Compound I-1, N-(1-((1r,4r)-4-ethoxycyclohexyl)-3-(pyrimidin-2-yl)-1H-pyrazol-4-yl)-2-(1H-pyrazol-4-yl)thiazole-4-carboxamide]	blocks	potently inhibits	4 nM	4 nM	potent inhibitor	8.1 nM	124 nM	70.7%	0.066
CCO[C@H]1CC[C@H](n2cc(NC(=O)c3csc(-c4cn[nH]c4)n3)c(-c3nc(F)ccc3F)n2)CC1 [Comparison-1, reference compound]				14 nM			1400 nM	77.2%	0.01
